Values of other authors, collected in patent publication US6977247B2, “Sequential therapy comprising a 20(S)-camptothecin and a pyrimidine base analog” (SuperGen, Inc., priority 2002, dated 2005).

Columns and labels:
[1] = test system: human colon cancer xenografts; details: mouse, in vivo
[2] = test system: various types of cancer, including primary cancer and metastasis; details: human, in vivo
[3] = administered intravenously; studies abandoned

CC[C@@]1(O)C(=O)OCc2c1cc1n(c2=O)Cc2cc3c(N)cccc3nc2-1 [9AC, 9-Amino-20(S)-Camptothecin]
anticancer activity against human colon cancer xenografts [1]: high anticancer activity

CC[C@@]1(O)C(=O)OCc2c1cc1n(c2=O)Cc2cc3c([N+](=O)[O-])cccc3nc2-1 [9NC, 9-nitrocamptothecin]
tumors known to regress after exposure [2]: breast carcinoma, ovarian carcinoma, cholangiocarcinoma, monomyelocytic leukemia, and pancreatic carcinoma | growth of human tumor xenografts (human tumor xenografts; immunodeficient nude mice): inhibited the growth | regression of human tumors established as xenografts (human tumor xenografts; nude mice): induced regression

CC[C@@]1(O)C(=O)OCc2c1cc1n(c2=O)Cc2cc3cc4c(cc3nc2-1)OCO4 [10, 2011 MD, 10, 2011-Methylendioxy-20(S)-Camptothecin]
anticancer activity against human colon cancer xenografts [1]: high anticancer activity

CC[C@@](O)(C(=O)[O-])c1cc2n(c(=O)c1CO)Cc1cc3ccccc3nc1-2.[Na+] [20(S)-camptothecin Na^+, sodium salt of 20(S)-camptothecin]
potency in clinical trials [3]: low potency | toxicity in clinical trials [3]: high toxicity

CC[C@@]1(O)C(=O)OCc2c1cc1n(c2=O)Cc2cc3ccccc3nc2-1 [20(S)-camptothecin]
solubility in water: insoluble in water
